Laboratory results: US20250136617A1 (The Regents of the University of Colorado, A Body Corporate, priority 2022, published 2025)
Where two headings read alike, the source gives them in different places.

Tests used:
Type in all cases: cell-based
[1] = tested on: CEM-CCRF human lymphoblast cells; experiment: Transwell migration assay in CEM-CCRF lymphoblasts
Method: Thus, to confirm CXCR4 functional activity, UCUF-728 was evaluated in a 96 w transwell migration assay in CEM human lymphoblast cells.
CEM-CCRF (ATCC CCL-119) were suspended in RPMI 1640 (Corning; 10-040-CV) at 5.0×10^5 cells/mL and allowed to incubate in cell culture incubator at 37° C. with 5% CO2 for one hour. […] Plates were reassembled and placed in a cell culture incubator at 37° C. with 5% CO2 for three hours. After incubation, Multi-Screen plate was disassembled and 100 μl of solution was collected from compound receiver tray and transferred to 96 well luminescent plate (Thermo Scientific; 265302) and an equal volume of ATPLite Istep luminescence reagent (Perkin Elmer, Waltham, MA; 6016731) was added to each well. Luminescence was measured using the CLARIOstar Plus (BMG LABTECH Inc., Cary, NC).

[2] = target: T1, CXCR4 (Homo sapiens, UniProt P61073); experiment: β-arrestin recruitment, 384-well, Tango CXCR4-bla U2OS cells, normalized to SDF-1α; parameters: host or cells: U2OS; conditions: normalized to SDF-1; for EC50: read-out: TANGO β-arrestin EC50; for Emax: U2OS, read-out: TANGO β-arrestin Emax (%)
Method: Tango™ CXCR4-bla U2OS Cells (Invitrogen; K1779) were used for (β-arrestin recruitment assays and maintained as a monolayer culture in McCoy's 5a (Corning; 10-050-CV) supplemented with 10% dialyzed Fetal Bovine Serum (Gibco; 26400-044), 0.1 mM MEM Non-essential amino acids solution, 25 mM HEPES solution (Corning; 25-060-CI), 1 mM Sodium Pyruvate (Gibco; 11360-070), 200 μg/mL Zeocin selection reagent (Gibco; R25001), 50 μg/mL Hygromycin B (Gibco, 10687010), and 100 μg/mL Geneticin (G418 Sulfate) (Gibco, 10131035). U2OS cells were subcultured twice weekly by 0.05% Trypsin-EDTA treatment (Corning; 25-051-CI) and passaged to continue exponential growth phase for cell signaling assays. All cell cultures were maintained in cell culture incubators at 37° C. with 5% CO2. CHO-K1 CXCR4 cells (DiscoverX, Fremont, CA, USA) were used for cAMP inhibition assays and maintained as a monolayer culture in DMEM/F12 (Corning; 10-091-CV) supplemented with 10% Fetal Bovine Serum (Corning; 35-011-CV) and 100IU penicillin, […] streptomycin sulfate (Corning; 30-002-CI) and […] G418 (Gibco; 101310350. Cells were subculture 2 times weekly by o.o5% Trypsin-EDTA treatment (Corning; 25-051-CI) and passaged to continue exponential growth phase for cell signaling assays. All cell cultures were maintained in cell culture incubators at 37° C. with 5% CO2.CEM-CCRF cells (ATCC CCL-119) were used in both the migration and calcium flux assays and were cultured in growth media consisting of RPMI 1640 (Corning; 10-040-CV) supplemented with 10% Fetal Bovine Serum (Corning; 35-011-CV), and 100 IU penicillin, […] streptomycin sulfate (Corning; 30-002-CI). Cells were maintained in suspension and sub-cultured twice weekly to maintain cell densities between 0.8×10^6 cells/mL and 2.5×10^6 cells/mL to maintain exponential growth phase. Cells were harvested for use in migration and calcium flux assays at 2.0×10^6 cells/mL to 2.5×10^6 cells/mL and resuspended in assay media to desired density for respective experiments.
Tango™ CXCR4-bla U2OS Cells were resuspended in assay media consisting of DMEM (Corning; Corning, NY) supplemented with 1% dialyzed Fetal bovine serum, 0.1 mM MEM Non-essential amino acids solution, 25 mM HEPES solution (Corning; Corning, NY), 1 mM Sodium Pyruvate and 100 IU penicillin, […] streptomycin sulfate (Corning; Corning, NY) at a density of 3.0×10^5 cells/ml. Assay media FreeStyle 293 expression Medium (Gibco; 12338018) was used for testing the thiadiazine scaffold CXCR4 agonists. Cells suspension was dispensed at 30 μl per well into assay plate and incubated overnight in a cell culture incubator at 37° C. with 5% CO2. […] Following overnight incubation, LiveBlazer FRET B/G Loading Kit (Invitrogen; K1095) working reagent was prepared according to supplier guidelines and 6 μl of solution was dispensed into each well; 8 μL of solution for testing the thiadiazine scaffold CXCR4 agonists. Assay plate was covered and incubated in a dark place for two hours and Fluorescence Intensity was measured using the BMG LABTECH CLARIOstar Plus (BMG LABTECH Inc., Cary, NC) according to the LiveBlazer FRET B/G Loading Kit excitation and emission measurement guidelines.
Results are expressed as mean±SD for 3 to 5 independent experiments. Statistically significant differences in gene expression between two groups were assessed by Student's T-test, ANOVA with an appropriate post hoc test was be used for multiple comparisons. P<0.05 was considered to be statistically significant. All concentration response curves were analyzed to determine EC50 and Emax using the following equation:
where Y is the normalized response (0-100%), X is the log of concentration of compound tested, and the Hill slope is equal to 1.0% and 100% activity are specific to each assay. […]

[3] = target: T1, CXCR4; experiment: primary 1536 w β-arrestin recruitment assay (FRET, β-lactamase reporter) in U2OS cells overexpressing CXCR4; parameters: host or cells: U2OS; conditions: for Emax: U2OS, read-out: CXCR4 b-arrestin Emax (%); for activity in primary β-arrestin assay: SAR discussion
Method: In an effort to identify CXCR4 activators from the NIH Molecular Library Small Molecule Repository (MLSMR), a primary screening assay was developed to measure β-arrestin recruitment to the activated G-protein coupled receptor by Florescence Resonance Energy Transfer (FRET) in U2OS cells overexpressing the CXCR4 receptor engineered with a β-lactamase (bla) reporter system (Invitrogen cat #K1779). CXCR4-bla cells plated in 1536 w were stimulated in the presence of 10 uM compound concentration. […] Using this approach, 370,620 compounds from the NIH MLSMR were successfully screened and 303 hits were identified (hit rate=0.08%; Z′=0.83). […] These compounds were graded according to activity and structure resulting in 86 compounds that met criteria as potential CXCR4 agonists for further characterization.
Chemical stability, synthetic tractability, solubility and complete dose response and potency criteria led to the prioritization of the 5-aryl-2-cyclopropyl oxazole scaffold, represented by primary hit Compound 2 (Table 1). Early structure-activity relationship was established around the 5-aryl-2-cyclopropyl oxazole core with commercially available analogs with diverse substituents in the sulfonanilide ring of the scaffold. […] Keeping the 2-OMe substituent constant a small set of electron withdrawing and electron rich substituents at the 5-position of the anilide ring were screened (entries 16-19).

[4] = Homo sapiens, read-out: Migration CEM EC50 (μM)
[5] = Homo sapiens, read-out: Migration CEM EC50

T1 sequence (P61073 whole entry): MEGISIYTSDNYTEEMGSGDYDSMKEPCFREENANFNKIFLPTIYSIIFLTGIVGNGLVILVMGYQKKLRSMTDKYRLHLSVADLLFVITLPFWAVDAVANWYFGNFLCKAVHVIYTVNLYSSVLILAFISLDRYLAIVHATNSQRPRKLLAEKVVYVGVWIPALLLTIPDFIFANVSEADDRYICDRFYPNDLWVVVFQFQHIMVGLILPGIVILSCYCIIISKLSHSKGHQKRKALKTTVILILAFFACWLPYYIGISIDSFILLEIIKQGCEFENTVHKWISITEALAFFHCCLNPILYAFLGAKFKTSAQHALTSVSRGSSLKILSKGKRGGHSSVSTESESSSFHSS

SMILES	TANGO β-arrestin Emax (%) [2]	EC50 [2]	Emax [2]	Migration CEM Emax (%) [1]	Emax ([1]; Homo sapiens)	further results
CCOc1ccccc1-c1nnc2n1N=C(c1ccc3c(c1)CCCN3)CS2 [Entry 29]	A (A ≥ 70)	< 5 µM	–	C (C ≤ 35)	–	EC50 ([1]; read-out: Migration CEM EC50): 5 to 50 µM
COc1ccc(F)cc1NS(=O)(=O)c1ccc(-c2cnc(C3CC3)o2)cc1 [compound 17]	–	–	–	–	–	Emax [3]: 42%
Cc1ccc(C)c(NS(=O)(=O)c2ccc(-c3cnc(C4CC4)o3)cc2)c1 [compound 13]	–	–	–	–	–	activity in primary β-arrestin assay [3]: most active among the dimethyl analogs; Emax [3]: 42%
CCOc1ccccc1-c1nnc2n1N=C(c1ccc(OC(F)(F)F)cc1)CS2 [Entry 10]	–	< 5 µM	> 70%	–	> 70%	EC50 [1, 4]: 5 to 50 µM
CCOc1ccccc1-c1nnc2n1N=C(c1ccc(N3CCCCC3)cc1)CS2 [Entry 27]	–	> 10 µM	–	–	–	EC50 [1, 5]: > 10 µM
CCOc1ccccc1-c1nnc2n1N=C(c1ccc(OC)cc1)CS2 [Entry 3]	–	< 5 µM	> 70%	–	35 to 70%	EC50 [1, 4]: < 5 µM
CCOc1ccccc1-c1nnc2n1N=C(c1ccc(N3CCCC3)cc1)CS2 [Entry 15]	A (A ≥ 70)	< 5 µM	–	A (A ≥ 70)	–	EC50 ([1]; read-out: Migration CEM EC50): < 5 µM
COc1ccccc1-c1nnc2n1N=C(c1ccc(N3CCOCC3)cc1)CS2 [Entry 16]	A (A ≥ 70)	5 to 50 µM	–	A (A ≥ 70)	–	EC50 ([1]; read-out: Migration CEM EC50): 5 to 50 µM
Cc1cccc(C)c1NS(=O)(=O)c1ccc(-c2cnc(C3CC3)o2)cc1 [compound 14]	–	–	–	–	–	activity in primary β-arrestin assay [3]: most active among the dimethyl analogs; Emax [3]: 45%
COc1ccccc1-c1nnc2n1N=C(c1ccc(SC)cc1)CS2 [Entry 12]	–	< 5 µM	> 70%	–	35 to 70%	EC50 [1, 5]: < 5 µM

More lines, main results first:

TANGO β-arrestin Emax (%) [2]	EC50 [2]	Emax [2]	SMILES	Migration CEM Emax (%) [1]	Emax ([1]; Homo sapiens)	further results
A (A ≥ 70)	< 5 µM	–	CCOc1ccccc1-c1nnc2n1N=C(c1ccc(NC(=O)C3CC3)cc1)CS2 [Entry 32]	C (C ≤ 35)	–	EC50 ([1]; read-out: Migration CEM EC50): < 5 µM
–	> 10 µM	–	CCOc1ccccc1-c1nnc2n1N=C(c1ccc(NC(=O)c3cccc(C(=O)OC)c3)cc1)CS2 [Entry 36]	–	–	EC50 [1, 5]: > 10 µM
C (C ≤ 35)	< 5 µM	–	C#CCCCNc1ccc(C2=Nn3c(nnc3-c3ccccc3OCC)SC2)cc1 [Entry 43]	C (C ≤ 35)	–	–
–	< 5 µM	< 35%	CCOc1ccccc1-c1nnc2n1N=C(c1ccc(C(=O)OC)cc1)CS2 [Entry 71]	–	35 to 70%	EC50 [1, 5]: < 5 µM
–	< 5 µM	< 35%	CCOc1ccccc1-c1nnc2n1N=C(c1ccc(N3CCCC3=O)cc1)CS2 [Entry 63]	–	35 to 70%	–
